Data on ten compounds can be found in ChEMBL document CHEMBL1122580, “Adenosine deaminase inhibitors. Synthesis of deaza analogues of erythro-9-(2-hydroxy-3-nonyl)adenine” (J Med Chem, 1984).

In the first assay the target is T1, Adenosine deaminase (Bos taurus, UniProt P56658).
T1 sequence (P56658 whole entry): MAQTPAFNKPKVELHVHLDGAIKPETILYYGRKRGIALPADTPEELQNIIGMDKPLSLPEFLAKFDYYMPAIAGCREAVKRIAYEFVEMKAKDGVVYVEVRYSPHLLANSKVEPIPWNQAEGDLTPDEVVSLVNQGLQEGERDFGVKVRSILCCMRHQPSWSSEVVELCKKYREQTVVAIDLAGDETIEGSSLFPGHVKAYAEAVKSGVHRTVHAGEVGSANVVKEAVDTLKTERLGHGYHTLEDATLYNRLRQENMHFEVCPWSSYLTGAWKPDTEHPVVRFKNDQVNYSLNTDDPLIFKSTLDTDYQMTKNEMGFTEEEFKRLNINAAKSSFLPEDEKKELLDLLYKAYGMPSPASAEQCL
The experiment in a line: Binding affinity against calf intestine adenosine deaminase enzyme; Not Active.
As to `OC[C@H]1O[C@@H](n2cnc3cnccc32)[C@H](O)[C@@H]1O`, the Ki result is listed as “Not Active”.

For another assay, the target named is T1, Adenosine deaminase. The experiment in a line: Binding affinity against calf intestine adenosine deaminase enzyme.
`Nc1nccc2c1ncn2[C@@H]1O[C@H](CO)[C@@H](O)[C@H]1O` showed a Ki of 360000 nM.
`OC[C@H]1OC(n2cnc3cccnc32)[C@H](O)[C@@H]1O` (stereo not given in full) displayed a Ki of 42000 nM.
On the same count and under the same terms, to `CCCCCC[C@@H]([C@@H](C)O)n1cnc2c(N)ncnc21` [EHNA] belongs 7 nM; to `OC[C@H]1O[C@@H](n2cnc3cncnc32)[C@H](O)[C@@H]1O` [NEBULARINE], 15000 nM.
The same measure, in the same setting: the same measure for `CCCCCCC(C(C)O)n1cnc2c(N)ccnc21` (stereo not given): 160 nM; for `CCCCCCC(C(C)O)n1cnc2cnccc21` (stereo not given): 120 nM.
Still for that read-out and setting: to `CCCCCCC(C(C)O)n1cnc2cncnc21` (stereo not given) belongs 840 nM.
As to `Nc1ccnc2c1ncn2[C@@H]1O[C@H](CO)[C@@H](O)[C@H]1O`, the affinity, expressed as Ki, was 660 nM.
On the same count and under the same terms, to `CCCCCCC(C(C)O)n1cnc2c(N)nccc21` (stereo not given) belongs 10 nM.

The term Ki denotes a measure of affinity in units of concentration, obtained from inhibition or displacement. Higher therefore signals a looser hold on the target.
